In patent US20170008888A1 (KYORIN PHARMACEUTICAL CO., LTD., priority 2014, published 2017):
Like-named read-outs stand apart in the source and are kept apart here.

How the values were obtained:
AMPKa1 or AMPKa2 = assay: Probe-based (AX9989) kinase profiling in Jurkat lysate: AMPKa1 or AMPKa2; type: binding; conditions: for AMPKa1 or AMPKa2 Inhibition % at indicated screening concentration: screening concentration 1 μM
How it was run: (§1)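 Jurkat lysate (50 mM HEPES pH 7.5, 150 mM NaCl, 0.1% Triton X-100, 20 mM MnCl2) pre-incubated 15 min with compound at room temperature, then labeled with 5 μM acyl phosphate ATP probe AX9989. Tryptic probe-labeled peptides streptavidin-captured and quantified by LC/MS; percent inhibition from decreased fragment intensity versus untreated.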

human PBMCs = assay: Human PBMC TNF-α response to endotoxin (ELISA); type: cell-based; conditions: 0.1 μg/ml LPS 16 h, read-out: EC50 for the inhibition of the human PBMC TNF-α response to endotoxin, ave. ± S.D.
How it was run: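 PBMCs at 2e6 cells/ml in RPMI 1640 with 10% charcoal-dextran-treated FBS were pre-treated 1 h at 37 °C with compound (4-point 1:5 dilution from 10 μM). Stimulation with 0.1 μg/ml E. coli 0111:B4 LPS for 16 h; TNF-α measured by ELISA (A450) in 25-fold diluted supernatant.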

ACK = target: T1, ACK (Homo sapiens, UniProt Q07912); assay: Probe-based (AX9989) kinase profiling in Jurkat lysate: ACK; type: binding
T1 construct: screened for activity against several kinases in Jurkat cells; endogenous in cells; host or cells: Jurkat cell lysate
How it was run: as §1

ABL or ARG = assay: Probe-based (AX9989) kinase profiling in Jurkat lysate: ABL or ARG; type: binding; conditions: for ABL or ARG Inhibition % at indicated screening concentration: screening concentration 1 μM
How it was run: as §1

[1] = target: T2, BRD4 bromodomain domain I [BRD4(1)] (Homo sapiens, UniProt O60885); assay: BRD4 bromodomain domain 1 inhibition assay (TR-FRET); type: binding; conditions: for inhibition at 10 µM: screening concentration 10 μM
T2 construct: BRD4 bromodomain domain I [BRD4(1)]; purchased Cayman Chemicals
How it was run: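 0.5% DMSO, in triplicate, using Cayman BRD4(1) TR-FRET protocol with slight modification. 670/620 nm ratio normalized to 10 μM JQ1, with DMSO control set as 0% inhibition.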

JAK1 = target: T3, JAK1 (Homo sapiens, UniProt P23458); assay: Probe-based (AX9989) kinase profiling in Jurkat lysate: JAK1; type: binding
T3 construct: screened for activity against several kinases in Jurkat cells; endogenous in cells; host or cells: Jurkat cell lysate
How it was run: as §1

ERK5 = target: T4, ERK5 (Homo sapiens, UniProt Q13164); assay: Probe-based (AX9989 acyl phosphate ATP probe) kinase profiling in Jurkat lysate: ERK5; type: binding; conditions: for IC50: Jurkat lysate
T4 construct: screened for activity against several kinases in Jurkat cells; endogenous in cells; host or cells: Jurkat cell lysate
How it was run: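 ERK5 IC50 values came from percent inhibition at the screening concentration, measured as loss of LC/MS signal of probe-labelled active-site peptides. Compound was added for 15 min at room temperature to Jurkat lysate (5 mg/ml, 20 mM MnCl2) before labelling with AX9989 ATP acyl phosphate probe at 5 μM.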

[2] = screening concentration 10.0 μM
[3] = calculated from percent inhibition of AX9989 labeling and the screening concentration
[4] = screening concentration 1.0 μM, read-out: Kinase inhibition % at indicated screening concentration: ACK
[5] = screening concentration 1.0 μM, read-out: Kinase inhibition % at indicated screening concentration: JAK1
[6] = screening concentration 1.0 μM, read-out: Kinase inhibition % at indicated screening concentration: ERK5
[7] = screening concentration 1 μM, read-out: ACK Inhibition % at indicated screening concentration
[8] = screening concentration 1 μM, read-out: JAK1 Inhibition % at indicated screening concentration
[9] = calculated from percent inhibition and screening concentration, AX9989 probe
[10] = screening concentration 1 μM, read-out: ERK5 Inhibition % at indicated screening concentration

T3 sequence (P23458 whole entry): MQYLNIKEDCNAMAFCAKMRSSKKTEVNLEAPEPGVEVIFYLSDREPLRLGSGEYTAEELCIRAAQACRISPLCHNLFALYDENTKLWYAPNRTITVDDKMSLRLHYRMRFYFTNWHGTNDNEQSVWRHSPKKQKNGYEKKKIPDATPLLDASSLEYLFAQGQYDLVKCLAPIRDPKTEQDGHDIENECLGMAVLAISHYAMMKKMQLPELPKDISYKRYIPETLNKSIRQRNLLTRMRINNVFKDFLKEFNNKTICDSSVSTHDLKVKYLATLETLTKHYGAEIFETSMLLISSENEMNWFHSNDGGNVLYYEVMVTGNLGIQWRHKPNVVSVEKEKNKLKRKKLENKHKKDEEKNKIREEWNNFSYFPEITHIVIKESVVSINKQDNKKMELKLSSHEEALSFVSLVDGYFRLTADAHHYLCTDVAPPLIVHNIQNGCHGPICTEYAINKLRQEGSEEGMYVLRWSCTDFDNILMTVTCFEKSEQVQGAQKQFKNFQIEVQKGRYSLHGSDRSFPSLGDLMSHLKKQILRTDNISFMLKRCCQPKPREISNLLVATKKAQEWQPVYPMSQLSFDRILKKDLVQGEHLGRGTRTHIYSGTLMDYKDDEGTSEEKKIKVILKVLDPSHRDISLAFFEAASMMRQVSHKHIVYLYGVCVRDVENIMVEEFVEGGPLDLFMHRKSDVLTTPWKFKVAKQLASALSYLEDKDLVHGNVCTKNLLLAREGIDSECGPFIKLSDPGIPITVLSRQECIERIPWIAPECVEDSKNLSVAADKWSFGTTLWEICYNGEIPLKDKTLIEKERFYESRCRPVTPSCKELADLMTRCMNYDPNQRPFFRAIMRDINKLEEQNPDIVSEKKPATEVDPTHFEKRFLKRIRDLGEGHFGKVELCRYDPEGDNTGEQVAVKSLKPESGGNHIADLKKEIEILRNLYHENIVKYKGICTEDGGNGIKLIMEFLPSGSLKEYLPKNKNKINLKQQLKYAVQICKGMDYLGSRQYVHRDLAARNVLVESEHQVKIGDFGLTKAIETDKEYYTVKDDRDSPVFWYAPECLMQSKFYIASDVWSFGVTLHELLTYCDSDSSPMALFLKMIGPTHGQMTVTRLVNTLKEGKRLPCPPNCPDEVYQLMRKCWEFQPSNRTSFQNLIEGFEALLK
T4 sequence (Q13164 whole entry): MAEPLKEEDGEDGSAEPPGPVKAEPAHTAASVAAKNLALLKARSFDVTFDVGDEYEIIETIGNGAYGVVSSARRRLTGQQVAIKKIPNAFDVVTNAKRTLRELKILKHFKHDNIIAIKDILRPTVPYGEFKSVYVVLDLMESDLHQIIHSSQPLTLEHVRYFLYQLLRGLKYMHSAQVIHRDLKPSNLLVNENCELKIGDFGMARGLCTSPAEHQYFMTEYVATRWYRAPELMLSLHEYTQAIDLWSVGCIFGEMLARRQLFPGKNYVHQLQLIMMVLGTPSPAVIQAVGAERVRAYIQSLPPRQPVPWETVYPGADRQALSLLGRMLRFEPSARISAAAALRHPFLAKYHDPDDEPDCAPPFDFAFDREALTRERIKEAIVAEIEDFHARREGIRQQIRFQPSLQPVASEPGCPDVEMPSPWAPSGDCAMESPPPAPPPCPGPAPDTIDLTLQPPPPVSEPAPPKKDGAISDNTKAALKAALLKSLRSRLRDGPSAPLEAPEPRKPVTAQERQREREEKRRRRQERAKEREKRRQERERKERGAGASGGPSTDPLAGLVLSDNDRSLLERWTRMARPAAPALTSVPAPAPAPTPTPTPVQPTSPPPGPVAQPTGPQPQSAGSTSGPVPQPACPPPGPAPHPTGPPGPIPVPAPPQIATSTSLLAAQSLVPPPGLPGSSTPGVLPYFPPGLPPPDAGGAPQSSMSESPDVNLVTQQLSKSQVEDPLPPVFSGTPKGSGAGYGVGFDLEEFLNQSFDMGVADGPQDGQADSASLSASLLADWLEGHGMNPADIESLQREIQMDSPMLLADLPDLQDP
T1 sequence (Q07912 whole entry): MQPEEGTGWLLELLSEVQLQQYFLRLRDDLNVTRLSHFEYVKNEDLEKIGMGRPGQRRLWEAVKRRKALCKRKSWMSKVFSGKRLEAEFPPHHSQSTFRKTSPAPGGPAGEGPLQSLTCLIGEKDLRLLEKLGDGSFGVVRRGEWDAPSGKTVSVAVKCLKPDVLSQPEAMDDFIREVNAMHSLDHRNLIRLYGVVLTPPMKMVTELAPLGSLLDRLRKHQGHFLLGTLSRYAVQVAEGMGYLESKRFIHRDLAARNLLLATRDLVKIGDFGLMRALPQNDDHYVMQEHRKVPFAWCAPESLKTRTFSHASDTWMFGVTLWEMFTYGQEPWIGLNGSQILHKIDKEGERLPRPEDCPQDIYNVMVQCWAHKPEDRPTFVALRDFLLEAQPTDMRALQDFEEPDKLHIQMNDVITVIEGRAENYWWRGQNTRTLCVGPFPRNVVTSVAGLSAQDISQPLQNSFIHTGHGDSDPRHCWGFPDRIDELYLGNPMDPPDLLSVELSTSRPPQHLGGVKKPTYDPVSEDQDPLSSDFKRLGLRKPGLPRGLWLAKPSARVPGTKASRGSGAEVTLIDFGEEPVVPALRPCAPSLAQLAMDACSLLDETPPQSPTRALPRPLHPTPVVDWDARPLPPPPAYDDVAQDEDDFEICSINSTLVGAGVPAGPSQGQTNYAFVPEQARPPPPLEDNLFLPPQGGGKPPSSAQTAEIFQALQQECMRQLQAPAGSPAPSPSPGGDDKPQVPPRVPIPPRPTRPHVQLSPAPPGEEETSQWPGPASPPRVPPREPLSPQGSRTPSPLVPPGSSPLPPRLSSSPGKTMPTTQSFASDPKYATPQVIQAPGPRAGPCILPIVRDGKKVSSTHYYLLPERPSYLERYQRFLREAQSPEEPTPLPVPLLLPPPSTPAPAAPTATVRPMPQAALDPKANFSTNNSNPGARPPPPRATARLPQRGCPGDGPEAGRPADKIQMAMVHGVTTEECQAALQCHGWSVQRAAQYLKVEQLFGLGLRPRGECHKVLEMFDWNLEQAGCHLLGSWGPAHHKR

Row | SMILES | inhibition at 10 µM [1] [%] | IC50 (ERK5; [3]) [nM] | AMPKa1 or AMPKa2 Inhibition % at indicated screening concentration (AMPKa1 or AMPKa2) | inhibition at 1 µM (ACK; [7]) [%] | ABL or ARG Inhibition % at indicated screening concentration (ABL or ARG) | inhibition at 1 µM (JAK1; [8]) [%] | IC50 (ERK5; [9]) [nM] | inhibition at 1 µM (ERK5; [10]) [%] | EC50 (human PBMCs) [nM] | further results
1 | CCOc1cc(C(=O)N2CC[C@@H](N(C)C)C2)ccc1Nc1cc2c(cn1)N(C)C(=O)c1ccccc1N2C [Compound 115] | 70 to 85 | ≤ 50 | – | – | – | – | – | – | 840 ± 530 | Kinase inhibition % at indicated screening concentration: AMPKa1 or AMPKa2 (AMPKa1 or AMPKa2; screening concentration 1.0 μM): E (E is ≦35%); inhibition at 1 µM (ACK; [4]): ≤ 35%; Kinase inhibition % at indicated screening concentration: ABL or ARG (ABL or ARG; screening concentration 1.0 μM): E (E is ≦35%); inhibition at 1 µM (JAK1; [5]): ≤ 35%; inhibition at 1 µM (ERK5; [6]): > 90%
2 | CCOc1cc(C(=O)N2CCC(CN3CCOCC3)CC2)ccc1Nc1cc2c(cn1)N(C)C(=O)c1ccccc1N2C [Compound 120] | > 85 | ≤ 50 | – | – | – | – | – | – | 860 | Kinase inhibition % at indicated screening concentration: AMPKa1 or AMPKa2 (AMPKa1 or AMPKa2; screening concentration 1.0 μM): E (E is ≦35%); inhibition at 1 µM (ACK; [4]): ≤ 35%; Kinase inhibition % at indicated screening concentration: ABL or ARG (ABL or ARG; screening concentration 1.0 μM): E (E is ≦35%); inhibition at 1 µM (JAK1; [5]): ≤ 35%; inhibition at 1 µM (ERK5; [6]): > 90%
3 | CCOc1cc(C(=O)N(CC)CCN(CC)CC)ccc1Nc1cc2c(cn1)N(C)C(=O)c1ccccc1N2C [Compound 122] | 70 to 85 | ≤ 50 | – | – | – | – | – | – | 1130 ± 380 | Kinase inhibition % at indicated screening concentration: AMPKa1 or AMPKa2 (AMPKa1 or AMPKa2; screening concentration 1.0 μM): E (E is ≦35%); inhibition at 1 µM (ACK; [4]): ≤ 35%; Kinase inhibition % at indicated screening concentration: ABL or ARG (ABL or ARG; screening concentration 1.0 μM): E (E is ≦35%); inhibition at 1 µM (JAK1; [5]): ≤ 35%; inhibition at 1 µM (ERK5; [6]): > 90%
4 | CCOc1cc(C(=O)N2CCC(NC(C)C)C2)ccc1Nc1cc2c(cn1)N(C)C(=O)c1ccccc1N2C (stereo not drawn) [Compound T4] | > 85 | – | E (E is ≦35%) | ≤ 35 | E (E is ≦35%) | ≤ 35 | ≤ 50 | > 90 | 490 | –
5 | CCOc1cc(C(=O)N2C[C@H]3CCN[C@H]3C2)ccc1Nc1cc2c(cn1)N(C)C(=O)c1ccccc1N2C [Compound T5] | 70 to 85 | – | E (E is ≦35%) | ≤ 35 | E (E is ≦35%) | ≤ 35 | ≤ 50 | > 90 | 840 | –
6 | CCOc1cc(C(=O)N2CCC(N3CC[C@H](O)C3)CC2)ccc1Nc1cc2c(cn1)N(C)C(=O)c1ccccc1N2C [Compound T11] | > 85 | – | E (E is ≦35%) | ≤ 35 | E (E is ≦35%) | ≤ 35 | ≤ 50 | > 90 | 620 | –
7 | CCOc1cc(C(=O)N2CCN(CCN(C)C)CC2)ccc1Nc1cc2c(cn1)N(C)C(=O)c1ccccc1N2C [Compound T14] | > 85 | – | E (E is ≦35%) | ≤ 35 | E (E is ≦35%) | ≤ 35 | ≤ 50 | > 90 | 720 ± 50 | –
8 | CCOc1cc(C(=O)N2CCN(C(C)=O)CC2)ccc1Nc1cc2c(cn1)N(C)C(=O)c1ccccc1N2C [Compound T18] | 70 to 85 | – | E (E is ≦35%) | ≤ 35 | E (E is ≦35%) | ≤ 35 | ≤ 50 | > 90 | 820 ± 100 | –
9 | CCOc1cc(C(=O)N2CC[C@@H](N3CCN(C)CC3)C2)ccc1Nc1cc2c(cn1)N(C)C(=O)c1ccccc1N2C [Compound T20] | – | – | E (E is ≦35%) | ≤ 35 | E (E is ≦35%) | ≤ 35 | ≤ 50 | > 90 | 460 ± 140 | inhibition at 5 µM ([1]; Screening concentration 5 μM): > 85%
10 | CCOc1cc(C(=O)N2CCC(N3CCCN(C)CC3)CC2)ccc1Nc1cc2c(cn1)N(C)C(=O)c1ccccc1N2C [Compound T31] | > 85 | – | E (E is ≦35%) | ≤ 35 | E (E is ≦35%) | ≤ 35 | ≤ 50 | > 90 | 490 | –

The next lines start with results.

Row | inhibition at 10 µM [1] [%] | IC50 (ERK5; [3]) [nM] | AMPKa1 or AMPKa2 Inhibition % at indicated screening concentration (AMPKa1 or AMPKa2) | inhibition at 1 µM (ACK; [7]) [%] | ABL or ARG Inhibition % at indicated screening concentration (ABL or ARG) | inhibition at 1 µM (JAK1; [8]) [%] | IC50 (ERK5; [9]) [nM] | inhibition at 1 µM (ERK5; [10]) [%] | SMILES | EC50 (human PBMCs) [nM] | further results
11 | < 70 | ≤ 50 | – | – | – | – | – | – | CN1C(=O)c2ccccc2N(C)c2cc(Nc3ccc(C(=O)N4CC[C@@H](N(C)C)C4)cc3F)ncc21 [Compound 110] | 1760 ± 500 | Kinase inhibition % at indicated screening concentration: AMPKa1 or AMPKa2 (AMPKa1 or AMPKa2; [2]): E (E is ≦35%); inhibition at 10 µM (ACK; screening concentration 10.0 μM, read-out: Kinase inhibition % at indicated screening concentration: ACK): ≤ 35%; Kinase inhibition % at indicated screening concentration: ABL or ARG (ABL or ARG; [2]): E (E is ≦35%); inhibition at 10 µM (JAK1; screening concentration 10.0 μM, read-out: Kinase inhibition % at indicated screening concentration: JAK1): ≤ 35%; inhibition at 10 µM (ERK5; screening concentration 10.0 μM, read-out: Kinase inhibition % at indicated screening concentration: ERK5): > 90%
12 | > 85 | ≤ 50 | – | – | – | – | – | – | CCOc1cc(C(=O)N2CCOCC2)ccc1Nc1cc2c(cn1)N(C)C(=O)c1ccccc1N2C [Compound 111] | 540 | Kinase inhibition % at indicated screening concentration: AMPKa1 or AMPKa2 (AMPKa1 or AMPKa2; screening concentration 1.0 μM): E (E is ≦35%); inhibition at 1 µM (ACK; [4]): ≤ 35%; Kinase inhibition % at indicated screening concentration: ABL or ARG (ABL or ARG; screening concentration 1.0 μM): E (E is ≦35%); inhibition at 1 µM (JAK1; [5]): ≤ 35%; inhibition at 1 µM (ERK5; [6]): ≤ 35%
13 | > 85 | ≤ 50 | – | – | – | – | – | – | CCOc1cc(C(=O)N2CC(N3CCCCC3)C2)ccc1Nc1cc2c(cn1)N(C)C(=O)c1ccccc1N2C [Compound 114] | 530 | Kinase inhibition % at indicated screening concentration: AMPKa1 or AMPKa2 (AMPKa1 or AMPKa2; screening concentration 0.1 μM): E (E is ≦35%); inhibition at 0.1 µM (ACK; screening concentration 0.1 μM, read-out: Kinase inhibition % at indicated screening concentration: ACK): ≤ 35%; Kinase inhibition % at indicated screening concentration: ABL or ARG (ABL or ARG; screening concentration 0.1 μM): E (E is ≦35%); inhibition at 0.1 µM (JAK1; screening concentration 0.1 μM, read-out: Kinase inhibition % at indicated screening concentration: JAK1): ≤ 35%; inhibition at 0.1 µM (ERK5; screening concentration 0.1 μM, read-out: Kinase inhibition % at indicated screening concentration: ERK5): > 90%
14 | > 85 | – | E (E is ≦35%) | ≤ 35 | E (E is ≦35%) | ≤ 35 | ≤ 50 | > 90 | CCOc1cc(C(=O)N2CCN(C3CCN(C)CC3)CC2)ccc1Nc1cc2c(cn1)N(C)C(=O)c1ccccc1N2C [Compound T8] | 410 ± 120 | –
15 | 70 to 85 | – | E (E is ≦35%) | ≤ 35 | E (E is ≦35%) | ≤ 35 | ≤ 50 | > 90 | CCOc1cc(C(=O)N2CC[C@@H](NCCF)C2)ccc1Nc1cc2c(cn1)N(C)C(=O)c1ccccc1N2C [Compound T9] | 590 | –
16 | > 85 | – | E (E is ≦35%) | ≤ 35 | E (E is ≦35%) | ≤ 35 | ≤ 50 | > 90 | CCOc1cc(C(=O)N2CCC(N3CC[C@@H](O)C3)CC2)ccc1Nc1cc2c(cn1)N(C)C(=O)c1ccccc1N2C [Compound T10] | 650 | –
17 | > 85 | – | E (E is ≦35%) | ≤ 35 | E (E is ≦35%) | ≤ 35 | ≤ 50 | > 90 | CCOc1cc(C(=O)N2CCN(CCN3CCOCC3)CC2)ccc1Nc1cc2c(cn1)N(C)C(=O)c1ccccc1N2C [Compound T15] | 800 ± 270 | –
18 | < 70 | – | E (E is ≦35%) | ≤ 35 | E (E is ≦35%) | ≤ 35 | ≤ 50 | > 90 | CCOc1cc(C(=O)N2CC[C@H](C#N)C2)ccc1Nc1cc2c(cn1)N(C)C(=O)c1ccccc1N2C [Compound T22] | 820 ± 140 | –
